From PMC9975698, “Hyperoside alleviates toxicity of β-amyloid via endoplasmic reticulum-mitochondrial calcium signal transduction cascade in APP/PS1 double transgenic Alzheimer's disease mice” (Redox Biology, 2023) come the findings set out here.

For data set [1], the system named is APP/PS1 mice. Description: Nissl staining of hippocampus. Format: in vivo. The conditions noted are these: hippocampus CA3 and DG, vs APP/PS1 control group. How it is done: All animal care and experimental procedures were performed in accordance with the “Institutional Animal Care and User Committee Guidelines” of the Macau University of Science and Technology. APP/PSEN1 (APP/PS1) mice (N000175) were purchased from the Nanjing Institute of Biomedical Sciences, Nanjing University, China, weighing 25 ± 5 g. The animals were housed in a temperature-controlled room with a 12 h light/dark cycle and given ad libitum food and water. Male mice were randomly divided into the following 6 experimental groups. (a) wild-type group (n = 6), (b) APP/PS1 group (n = 6), (c) HYP (20 mg/kg group) (n = 7), (d) HYP (40 mg/kg) group (n = 8), (e) HYP (80 mg/kg) group (n = 8) and (f) memantine (MEM) (10 mg/kg) positive control group (n = 8). HYP was dissolved in the solvent containing 10% DMSO, 40% PEG300 and 5% Tween-80 in PBS, and administrated via nasal injection for every 3 days with a volume of 0.5 μL/g of body weight for 8 consecutive weeks. The CA1, CA3 and DG regions of the mouse hippocampus was assessed by Nissl staining for Nissl body detection. Brain sections were dehydrated as the same as in HE staining, followed by 1% tar violet staining for 1 h, and with distilled water washing followed by 70% alcohol separation for 1 min. Tissues were then dehydrated in 70%, 80% and 90% of alcohol. […]

Data set [2] has as its system APP/PS1 mice. As to the kind of experiment: RT-PCR validation of calcium-related genes in mice. The class given is in vivo. The conditions noted are these: HYP group compared to APP/PS1 group. How it is done: To investigate the molecular mechanism of HYP, initial data (36,668 raw reads) obtained from the RNA sequencing were performed. […] In GO classification, the unigenes were annotated in three major categories (Fig. 8B). […] For the biological process category, most of the unigenes were matched to immune and signaling processes. For the cellular component category, most of the unigenes were assigned to cell and cell part. For the molecular function category, binding activity accounted for the largest proportion. […] Gene set enrichment analysis (GSEA) has been extensively applied to identify underlying pathways. In Fig. 8D, GSEA analysis of calcium channels was performed in conjunction with the previous AD hypothesis. Next, the relative expression levels of the hub genes in the APP and HYP-treated mice groups were examined by RT-PCR analysis.

Data set [3] is described as follows: Pharmacokinetics in serum after IV or IN administration. The conditions noted are these: 20 mg/kg, mice; for AUC(0-t) / Cmax / Tmax / k el / half-life: mouse, serum; for k el: read-out: Serum Ke (converted); for half-life: read-out: Serum t1/2 (converted). The class given is in vivo. As for the experimental part: After tail vein injection or nasal administration, blood was collected at 5, 15 and 30 min, 1, 2, 4, 8, 12, 24, 48, 72, 120 and 168 h, for immediate centrifugation at 14,000 rpm for 5 min. The serum was harvested and stored at −20 °C until further processing. Brain tissue was collected and was thoroughly rinsed in saline to eliminate blood and blotted dry with filter paper. Each tissue sample was homogenized in saline (1:5, w/v) and stored at −20 °C until analysis. 50 μL of serum or 100 μL of brain tissue was put in a 1.5 mL EP tube, followed by the addition of 20 μL of internal standard solution (10 μM ISO). The protein was precipitated with 1 mL of ethyl acetate, vortexed for 5 min and centrifuged at 20,000 g (4 °C and 10 min). The supernatant solution was nitrogen blown to dry and re-suspended with 100 μL of 50% acetonitrile for centrifugation again. The supernatant was taken for analysis by using LC-MS/MS. HYP content was quantified using UHPLC-MS/MS system, which includes Agilent 1290 Infinity UHPLC, and Agilent 6460 Triple Quadrupole, equipped with an electrospray ionization interface used to generate positive ions for the determination of HYP. The compounds were analyzed by using the Agilent Zorbax Eclipse Plus C-18 column with a particle size of […] (flow rate: 0.35 mL/min). The mobile phase was set as follows: mobile phase A (0.1% formic acid in water) and mobile phase B (0.1% formic acid in ACN): 0–3 min, 10–30% B; 3–4 min, 70% B; 4–5 min, 30–70% B; 5–6 min, 70-10% B. The column and auto-sampler temperature were maintained at 30 °C and 4 °C, respectively. Data were analyzed by using Agilent MassHunter Workstation software B.01.03. The gas temperature was set at 300 °C with a flow rate of 11 L/min. Gases were set at 30 psi for the nebulizer, capillary, at 4000 V. For the HYP, the fragment was 170. The collision energy was set at 30; The mass transitions were as follows based on multiple reaction monitoring: m/z 464.38 → 299.9. For the Isorhamnetin (ISO), the fragment was 150. The collision energy was set at 30; The mass transitions were as follows based on multiple reaction monitoring: m/z 315.4 → 300.1, The measurements of HYP were done using the standard and linear least-squares regression curve.

A short description of data set [4]: Survival, body weight and organ index during the in vivo experiment. The conditions noted are these: HYP 20/40/80 mg/kg nasal, every 3 days, 8 weeks. The arrangement: species or system mice. As for the experimental part: All animal care and experimental procedures were performed in accordance with the “Institutional Animal Care and User Committee Guidelines” of the Macau University of Science and Technology. APP/PSEN1 (APP/PS1) mice (N000175) were purchased from the Nanjing Institute of Biomedical Sciences, Nanjing University, China, weighing 25 ± 5 g. The animals were housed in a temperature-controlled room with a 12 h light/dark cycle and given ad libitum food and water. Male mice were randomly divided into the following 6 experimental groups. (a) wild-type group (n = 6), (b) APP/PS1 group (n = 6), (c) HYP (20 mg/kg group) (n = 7), (d) HYP (40 mg/kg) group (n = 8), (e) HYP (80 mg/kg) group (n = 8) and (f) memantine (MEM) (10 mg/kg) positive control group (n = 8). HYP was dissolved in the solvent containing 10% DMSO, 40% PEG300 and 5% Tween-80 in PBS, and administrated via nasal injection for every 3 days with a volume of 0.5 μL/g of body weight for 8 consecutive weeks.

Like-named read-outs stand apart in the source and are kept apart here.

One may read the AUC(0-t) as the area under the concentration-time curve up to a stated or last time point. For orientation: Cmax means the peak of the concentration-time curve. A word on the Tmax: it is the time from dosing to the highest level. Take `O=c1c(O[C@@H]2O[C@H](CO)[C@H](O)[C@H](O)[C@H]2O)c(-c2ccc(O)c(O)c2)oc2cc(O)cc(O)c12` [HYP, Quercetin-3-O-β-D-galactopyranoside]: the “density of neuronal cells (Nissl staining)” value with APP/PS1 mice [1] was “density of neuronal cells in the CA3 and DG regions was higher”. Also, the “mRNA expression levels of calcium-related genes” value with APP/PS1 mice [2] is “mRNA expression levels of Cav2.3, Cav1.3, NCLX and TRPV4 were decreased”. Besides, the “Serum F (AUCIN/AUCIV ratio)” value in data set [3] (IN) came out at 23.2%. In addition, in data set [3] (inhaled or intranasal, IN), the AUC(0-t) came out at 5500 ± 1220 µg·h/mL, the Cmax came to 300 ± 102 µg/mL, the time of peak concentration (Tmax) is 0.5 h and the k el is 1.67e-05 s⁻¹. For the same molecule, the half-life in data set [3] (inhaled or intranasal, IN) was 25.6 ± 12.5 h. In data set [3] (IV), the AUC(0-t) amounted to 23700 ± 1740 µg·h/mL, the highest level (Cmax) was 1160 ± 268 µg/mL, the time of peak concentration (Tmax) worked out at 0.08 h and the k el is 0.000103 s⁻¹. Moreover, the half-life in data set [3] (IV) is 1.85 ± 1.25 h. Also, the “survival, body weight and organ index” value in data set [4] is listed as “all mice survived without significant changes in body weight”.
